Measured values from ChEMBL document CHEMBL4619803, “Stepwise Design of γ-Secretase Modulators with an Advanced Profile by Judicious Coordinated Structural Replacements and an Unconventional Phenyl Ring Bioisostere” (J Med Chem, 2020).
pIC50, pKd: −log10 of the molar value. In brackets after ≈: the same amount, converted by molar mass.

Columns and labels:
Mus musculus [1] = test: In vivo modulation of gamma secretase in APP-Swedish transgenic mouse assessed as reduction in Abeta42 production by measuring remaining Abeta42 level at 3 mg/kg, po measured after 4 hrs by ELISA or AlphaLISA assay relative to control; assay type: functional
Mus musculus [2] = test: In vivo modulation of gamma secretase in APP-Swedish transgenic mouse assessed as reduction in Abeta42 production by measuring remaining Abeta42 level at 10 mg/kg, po measured after 4 hrs by ELISA or AlphaLISA assay relative to control; assay type: functional
Mus musculus [3] = test: In vivo modulation of gamma secretase in po dosed APP-Swedish transgenic mouse assessed as reduction in total Abeta42 production level in brain administered as single dose by ELISA or AlphaLISA assay; assay type: functional, organism-based; conditions: for pIC50: Mus musculus
[4] = Covalent protein binding in human liver microsomes assessed per mg protein in presence of NADPH; assay type: ADME, Microsome
Gamma-secretase = test: (§1) Modulation of gamma secretase in human H4 cells over expressing human APP695 harboring K595N/M596L Swedish double mutant assessed as reduction in Abeta42 production after 24 hrs by Alphalisa assay; assay type: cell-based
[5] = target: Gamma-secretase (Homo sapiens) (UniProt Q96BI3+Q9NZ42+Q8WW43+P49768+Q92542+P49810); test: as §1; assay type: cell-based
[6] = Fraction unbound in mouse plasma; assay type: ADME, cell-free
[7] = Fraction unbound in 10% fetal calf serum; assay type: ADME, cell-free, Bos taurus; conditions: cattle
[8] = Fraction unbound in human plasma; assay type: ADME, cell-free
Mus musculus [9] = test: In vivo modulation of gamma secretase in APP-Swedish transgenic mouse assessed as reduction in Abeta42 production by measuring remaining Abeta42 level at 30 mg/kg, po measured after 4 hrs by ELISA or AlphaLISA assay relative to control; assay type: functional
Mus musculus [10] = species: Mus musculus; test: (§2) Modulation of mouse gamma secretase assessed as reduction in Abeta42 production
[11] = as §2
[12] = Dark toxicity in human Melanocytes assessed as reduction in cell viability; assay type: cell-based, Melanocyte
Mus musculus [13] = test: In vivo modulation of gamma secretase in APP-Swedish transgenic mouse assessed as reduction in Abeta42 production by measuring remaining Abeta42 level at 1 mg/kg, po measured after 4 hrs by ELISA or AlphaLISA assay relative to control; assay type: functional
[14] = Clearance in human hepatocytes assessed per million cells; assay type: ADME, cell-based, Hepatocyte; conditions: read-out: CLH
[15] = Octanol/water distribution co-efficient, log D of the compound at pH 7.4; assay type: physicochemical
Melanocyte = test: Phototoxicity in human Melanocytes in presence of UVA at 320 to 400 nm; assay type: cell-based; conditions: light or radiation study
[16] = target: Voltage-gated inwardly rectifying potassium channel KCNH2 (Homo sapiens, UniProt Q12809); test: (§3) Inhibition of human ERG
Sequence of Voltage-gated inwardly rectifying potassium channel KCNH2 (Q12809 whole entry): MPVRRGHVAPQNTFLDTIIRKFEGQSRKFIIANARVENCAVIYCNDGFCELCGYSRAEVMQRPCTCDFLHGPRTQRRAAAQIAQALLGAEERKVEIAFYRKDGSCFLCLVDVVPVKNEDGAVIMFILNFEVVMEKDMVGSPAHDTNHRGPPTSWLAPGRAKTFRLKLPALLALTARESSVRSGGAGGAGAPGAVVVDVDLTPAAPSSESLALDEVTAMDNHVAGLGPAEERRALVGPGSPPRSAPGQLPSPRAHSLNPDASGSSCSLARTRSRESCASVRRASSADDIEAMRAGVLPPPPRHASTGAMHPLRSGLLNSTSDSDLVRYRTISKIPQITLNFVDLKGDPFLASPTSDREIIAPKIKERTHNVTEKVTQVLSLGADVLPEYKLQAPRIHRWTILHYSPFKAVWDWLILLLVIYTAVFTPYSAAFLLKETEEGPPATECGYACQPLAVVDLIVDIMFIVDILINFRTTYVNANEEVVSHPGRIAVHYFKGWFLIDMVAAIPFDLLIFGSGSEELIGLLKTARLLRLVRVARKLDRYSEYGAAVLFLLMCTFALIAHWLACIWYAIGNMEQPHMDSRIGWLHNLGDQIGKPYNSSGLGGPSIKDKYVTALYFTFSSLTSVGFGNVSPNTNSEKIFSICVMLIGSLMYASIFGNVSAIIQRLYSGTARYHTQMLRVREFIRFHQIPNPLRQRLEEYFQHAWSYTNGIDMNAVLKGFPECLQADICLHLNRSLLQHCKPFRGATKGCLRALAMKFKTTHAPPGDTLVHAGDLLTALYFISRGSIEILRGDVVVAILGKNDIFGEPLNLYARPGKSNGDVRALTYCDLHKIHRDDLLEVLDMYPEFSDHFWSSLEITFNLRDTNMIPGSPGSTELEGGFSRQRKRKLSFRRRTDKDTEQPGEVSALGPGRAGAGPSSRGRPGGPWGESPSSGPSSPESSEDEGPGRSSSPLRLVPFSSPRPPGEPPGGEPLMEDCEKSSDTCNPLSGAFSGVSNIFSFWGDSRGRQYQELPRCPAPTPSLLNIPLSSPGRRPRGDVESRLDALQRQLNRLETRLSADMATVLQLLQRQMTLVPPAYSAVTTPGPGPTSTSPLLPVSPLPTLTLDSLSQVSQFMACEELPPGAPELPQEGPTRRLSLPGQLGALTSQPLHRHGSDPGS

hERG (KCNH2) = hERG (KCNH2) (Homo sapiens, UniProt Q12809); test: as §3; conditions: human
Sequence of hERG (KCNH2) (Q12809 whole entry): as above

Mus musculus [17] = test: In vivo modulation of gamma secretase in APP-Swedish transgenic mouse assessed as reduction in Abeta42 production by measuring remaining Abeta42 level at 0.3 mg/kg, po measured after 4 hrs by ELISA or AlphaLISA assay relative to control; assay type: functional
[18] = Ratio of IC50 for dark toxicity in human Melanocytes to IC50 for phototoxicity in human Melanocytes in presence of UVA at 320 to 400 nm; assay type: cell-based, Melanocyte; conditions: read-out: Ratio IC50
[19] = Solubility of compound by lyophilisation solubility assay; assay type: physicochemical
[20] = target: Phosphatidylinositol 4-kinase beta (Homo sapiens, UniProt Q9UBF8); test: Binding affinity to PIK4CB (unknown origin); assay type: ADME
Sequence of Phosphatidylinositol 4-kinase beta (Q9UBF8 whole entry): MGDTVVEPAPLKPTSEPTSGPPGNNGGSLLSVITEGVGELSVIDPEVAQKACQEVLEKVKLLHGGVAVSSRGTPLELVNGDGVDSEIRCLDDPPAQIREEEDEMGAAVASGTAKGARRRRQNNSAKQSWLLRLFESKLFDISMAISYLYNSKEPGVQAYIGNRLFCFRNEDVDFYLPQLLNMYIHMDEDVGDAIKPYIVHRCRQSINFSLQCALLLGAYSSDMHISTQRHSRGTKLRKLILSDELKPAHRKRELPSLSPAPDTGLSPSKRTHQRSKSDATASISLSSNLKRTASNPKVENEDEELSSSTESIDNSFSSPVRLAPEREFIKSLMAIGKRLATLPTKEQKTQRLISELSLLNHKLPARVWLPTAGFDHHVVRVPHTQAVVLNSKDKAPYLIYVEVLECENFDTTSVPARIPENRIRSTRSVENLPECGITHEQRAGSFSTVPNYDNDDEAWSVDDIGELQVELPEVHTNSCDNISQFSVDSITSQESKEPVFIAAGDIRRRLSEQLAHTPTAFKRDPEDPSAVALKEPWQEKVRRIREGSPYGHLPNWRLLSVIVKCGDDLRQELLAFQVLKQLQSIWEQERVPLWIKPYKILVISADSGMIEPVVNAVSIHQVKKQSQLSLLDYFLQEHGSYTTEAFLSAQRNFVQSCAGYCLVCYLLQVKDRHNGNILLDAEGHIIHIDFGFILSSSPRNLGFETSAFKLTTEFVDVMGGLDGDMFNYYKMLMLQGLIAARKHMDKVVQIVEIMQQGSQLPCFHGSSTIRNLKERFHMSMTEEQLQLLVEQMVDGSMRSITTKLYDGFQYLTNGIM

[21] = Ratio of IC50 for dark toxicity in human Keratinocytes to IC50 for phototoxicity in human Keratinocytes in presence of UVA at 320 to 400 nm; assay type: cell-based, Keratinocyte; conditions: read-out: Ratio IC50
Keratinocyte = test: Phototoxicity in human Keratinocytes in presence of UVA at 320 to 400 nm; assay type: cell-based; conditions: light or radiation study
[22] = Dark toxicity in human Keratinocytes assessed as reduction in cell viability; assay type: cell-based, Keratinocyte
[23] = Clearance in mouse hepatocytes assessed per million cells; assay type: ADME, cell-based, Hepatocyte; conditions: read-out: CLH
[24] = Oral bioavailability in rat at 2 mg/kg via gavage measured over 24 hrs; assay type: ADME, organism-based; conditions: in vivo
[25] = Terminal half life in rat at 1 mg/kg, iv bolus measured over 24 hrs; assay type: ADME, organism-based; conditions: in vivo, read-out: beta t1/2 (converted)
[26] = Solubility in fed state simulated intestinal fluids; assay type: physicochemical; conditions: simulated gi fluid
[27] = Clearance in rat at 1 mg/kg, iv bolus measured over 24 hrs; assay type: ADME, organism-based; conditions: in vivo
[28] = Clearance in minipig at 1 mg/kg, iv bolus measured over 240 hrs; assay type: ADME, organism-based, Sus scrofa domesticus; conditions: pig, in vivo
[29] = Dose normalized AUC (infinity) in minipig at 3 mg/kg, po via gavage measured over 240 hrs; assay type: ADME, organism-based, Sus scrofa domesticus; conditions: pig, in vivo
[30] = Solubility of the compound in fasted state simulated intestinal fluid; assay type: physicochemical; conditions: simulated gi fluid
[31] = Thermodynamic solubility of the compound; assay type: physicochemical
[32] = Volume of distribution at steady state in minipig at 1 mg/kg, iv bolus measured over 240 hrs; assay type: ADME, organism-based, Sus scrofa domesticus; conditions: pig, in vivo, read-out: Vdss
[33] = Oral bioavailability in minipig at 3 mg/kg via gavage measured over 240 hrs; assay type: ADME, organism-based, Sus scrofa domesticus; conditions: pig, in vivo
[34] = Terminal half life in minipig at 1 mg/kg, iv bolus measured over 240 hrs; assay type: ADME, organism-based, Sus scrofa domesticus; conditions: pig, in vivo, read-out: beta t1/2 (converted)
[35] = Cytotoxicity against human embryonic stem cells assessed as reduction in cell viability; assay type: cell-based
[36] = Dose normalized AUC (infinity) in rat at 2 mg/kg, po via gavage measured over 24 hrs; assay type: ADME, organism-based; conditions: in vivo
[37] = Volume of distribution at steady state in rat at 1 mg/kg, iv bolus measured over 24 hrs; assay type: ADME, organism-based; conditions: in vivo, read-out: Vdss
[38] = Fraction unbound in rat plasma; assay type: ADME, cell-free
[39] = Clearance in rat hepatocytes assessed per million cell; assay type: ADME, cell-based, Hepatocyte; conditions: read-out: CLH
[40] = Mutagenicity in Salmonella typhimurium by Ames test; assay type: toxicity; conditions: salmonella enterica subsp. enterica serovar typhimurium

Row | SMILES | remaining Abeta42 level (% of control) (Mus musculus [1]) [%] | remaining Abeta42 level (% of control) (Mus musculus [2]) [%] | fIC50 (Mus musculus [3]) [nM] | pIC50 (Mus musculus [3]) | PB [4] [pmol] | pIC50 (Gamma-secretase) | fIC50 [5] [nM] | fraction unbound [6] | fraction unbound [7] | fraction unbound [8] | fIC50 (Mus musculus [10]) [nM] | pIC50 [11] | hepatocyte CLint [14] [µL/min/1e6 cells] | logD [15] | pIC50 (Melanocyte) | pIC50 [16] | IC20 (hERG (KCNH2)) [nM] | solubility [19] [µg/mL] | pKd [20] | pIC50 (Keratinocyte) | other results
1 | Cc1nsc(N2CC[C@@H](Nc3nc4c(-c5ccc(F)c(F)c5F)cccn4n3)C(F)(F)C2)n1 | 64 | 46 | 8 | 5.54 | 149 | 7.26 | 3.3 | 0.0029 | 0.06 | 0.0003 | 2.3 | 7.42 |  |  |  |  |  |  |  |  | Activity (Mus musculus [9]): 31%
2 | Cc1nsc(N2CC3CCC(C2)C3Nc2nc3c(-c4ccc(F)c(F)c4F)cccn3n2)n1 (stereo not drawn) | 27 | 22 | 0.5 | 6.80 | 105 | 8.35 | 1 | 0.003 | 0.22 | 0.004 | 0.9 | 8.40 | 6.6 | 4.1 to 4.14 | 5.78 | > 5.70 | < 1000 | 3.8 to 3.86 (≈ 8.06 to 8.19 µM) | 6.92 | 5.78 | pIC50 [12]: < 4.42; Activity (Mus musculus [13]): 56%; Activity (Mus musculus [17]): 75%; selectivity ratio [18]: 22.9 to 23; selectivity ratio [21]: 22.9 to 23; pIC50 [22]: < 4.42; hepatocyte CLint [23]: 5.4 µL/min/1e6 cells
3 | Cc1nnc(N2C[C@H]3CC[C@@H](C2)[C@@H]3Nc2nc3c(O[C@@H](C)C(F)(F)F)ccc(C(F)(F)F)n3n2)o1 |  |  |  | 7.40 |  | 7.52 | 19 | 0.043 |  | 0.05 | 14 | 7.68 | 1.1 | 3.8 to 3.85 | 4.60 | < 4.70 | 5400 | 82 (≈ 162 µM) | < 4.40 | 4.60 | bioavailability [24]: 33%; half-life [25]: 8.1 h; solubility [26]: 390 µg/mL (≈ 772 µM); clearance [27]: 3.8 mL/min/kg; clearance [28]: 3.35 mL/min/kg; AUC/dose [29]: 1383 kg·ng·h/mL/mg; solubility [30]: 234 µg/mL (≈ 463 µM); Therm solubility [31]: 85 µg/mL; Vd [32]: 0.83 L/kg; bioavailability [33]: 27%; half-life [34]: 6.7 h; Activity [35]: Non-Toxic; AUC/dose [36]: 1748 kg·ng·h/mL/mg; Vd [37]: 2.2 L/kg; fraction unbound [38]: 0.059; hepatocyte CLint [39]: 6.3 µL/min/1e6 cells; Activity [40]: Non-Toxic; hepatocyte CLint [23]: 3.4 µL/min/1e6 cells
